The values that follow are results of earlier work, collected in patent US20090130200A1, “GRANULES FOR CONTROLLED RELEASE OF TAMSULOSIN” (SIEGFRIED GENERICS INTERNATIONAL AG, priority 2004, published 2009).

Where a name gives a salt, the structure may show the parent alone.

For `CCOc1ccccc1OCCN[C@H](C)Cc1ccc(OC)c(S(N)(=O)=O)c1` [Tamsulosin hydrochloride], the solubility in water result is recorded as “only slightly soluble in water”.
